Consider one substance from patent US7262173B2, “Chemosensitizing with liposomes containing oligonucleotides” (Georgetown University, priority 1997, dated 2007).

For series [1], the system named is Raf-1. The series can be described thus: Raf-1 expression in SQ-20B tumor xenografts after i.v. or intratumoral ODN. Format: in vivo, human. As to conditions: intravenous treatment; compared with untreated controls. The method, then: FIG. 7: Effects of intravenous administration of LE-ATG-AS raf ODN (SEQ ID NO:1) our Raf-1 expression in normal and tumor tissues. Raf-1 expression was examined in liver, kidneys and SQ-20B tumor xenograft of Balb/c nu/nu mice after i.v. injections of 6 mg/kg daily dose of LE-ATG-AS raf ODN (SEQ ID NO:1) (AS) or LE-ATG-S raf ODN (SEQ ID NO:3) (S) for five consecutive days. Control mice (C) received normal saline. Representative data showing Raf-1 expression in lysates normalized for protein content by immunoprecipitation and immunoblotting (top). Quantification data are shown as mean±s.d. from three mice (bottom).
FIG. 8: Inhibition of Raf-1 protein expression in SQ-20B tumor xenografts by intratumoral administration of LE-ATG-AS raf ODN (SEQ ID NO:1): Each animal received intratumoral injections of LE-ATG-AS raf ODN (SEQ ID NO:1) (AS) on the right flank and LE-ATG-S raf ODN (SEQ ID NO:3) (S) on the left flank at a dose of 4 mg/kg daily for seven days as explained in the experimental procedures. […] Quantification data shown are mean±s.d., from three representative mice. […]
For in vivo expression studies, tumor tissue and organs were homogenized in the cell lysis buffer using Polytron homogenizer (Westbury, N.Y., USA). Raf-1 expression was analyzed in tissue homogenates by immunoprecipitation and immunoblotting as described above.

Series [2] has as its system SQ-20B tumor cells. Nature of the series: Intracellular stability of antisense raf ODN in DMTAP:PC:CHOL liposomes. Format: cell-based, human. As to conditions: 10 μM, 4 hours, 1% serum. As to the method: Stability experiments: SQ-20B tumor cells were incubated with a mixture of radiolabeled-(^32P-γATP) and 10 μM of unlabeled antisense raf oligonucleotide (ATG-AS (SEQ ID NO:1)) either in the liposome encapsulated form (LE-ATG-AS (SEQ ID NO:1)) (FIG. 19, Lane 1) or free form (ATG-AS (SEQ ID NO:1)) (FIG. 19, lane 2). The treatment lasted for 4 hours at 37° C. in 1% serum containing medium. Immediately following incubation, cells were washed with phosphate buffered saline (PBS), detached by trypsinization, and collected by centrifugation. The cell pellet was washed twice with PBS, and cells were then lysed in 10 mM Tris-HCl, 200 mM NaCl, 1% SDS, 200 μg/ml proteinase K, pH 7.4 for 2 hours at 37° C. Oligos were extracted with phenol:chloroform, and aqueous fraction was collected. The samples were normalized for equal radioactivity, and analyzed hy denaturing gel electrophoresis (15% polyacrylamide/7M urea), followed by autoradiography. […]
Stability experiments: SQ-20B tumor cells were incubated with a mixture of radiolabeled (^32P-γATP) and 10 μM of unlabeled antisense raf oligonucleotide (ATG-AS (SEQ ID NO:1)) in the liposome encapsulated form (LE-ATG-AS (SEQ ID NO:1)). […] The samples were normalized for equal radioactivity, and analyzed by denaturing gel electrophoresis (15% polyacrylamide/7M urea), followed by autoradiography. […]

Series [3] concerns SQ-20B cells. As to conditions: free ODN 100 μM, 1% serum, previously demonstrated, cited from earlier work.

On to “5′-GTG-CTCCATTGATGC-3′ (antisense GTGCTCCATTGATGC; DNA, linkages s1 o12 s1 (s phosphorothioate, o phosphodiester), methylation of C not given here) [ATG-AS raf ODN, antisense ODN to translation initiation site of human c-raf-1 cDNA; one terminal base linkage at each end phosphorothioate]”, for which the “effect on Raf-1 expression in tumor tissue” value in series [1] is on record as “no effect”. For the same substance, in series [2], the “integrity of oligonucleotide in treated cells” value is recorded as “degraded form”. Also, in series [3] (at 6 hours), the “ODN taken up by SQ-20B cells” value is reported as below 2%. For the same substance, the “maximal uptake by SQ-20B cells” value in series [3] (at 12 hours) was “approximately 4%”.
